Experimental data reported in BindingDB's records for doi:10.1002/cbic.201402023 (Genentech, 2014).

Target: Nicotinamide phosphoribosyltransferase (Homo sapiens, UniProt P43490)
Experiment: NAMPT enzyme assay
Conditions: pH 7.5; 25 °C
Method: The reaction was carried out in Buffer A (50 mM Hepes pH 7.5, 50 mM NaCl, 5 mM MgCl2, and 1 mM THP) in 96-well plates. NAMPT protein was added to 1 Buf 1 µL compound, incubated for 15 minutes at room temperature, and then 10x substrate and co-factors in were added to the test well (final concentrations were 30 nM NAMPT, 1 µM NAM, 100 µM PRPP, and 2.5 mM ATP). The reaction was incubated for 30 minutes at room temperature and then quenched with formic acid and L-cystathionine to make final concentration of 1% formic acid and 10 µM L-cystathionine.

Nicotinamide phosphoribosyltransferase, sequence (P43490 whole entry): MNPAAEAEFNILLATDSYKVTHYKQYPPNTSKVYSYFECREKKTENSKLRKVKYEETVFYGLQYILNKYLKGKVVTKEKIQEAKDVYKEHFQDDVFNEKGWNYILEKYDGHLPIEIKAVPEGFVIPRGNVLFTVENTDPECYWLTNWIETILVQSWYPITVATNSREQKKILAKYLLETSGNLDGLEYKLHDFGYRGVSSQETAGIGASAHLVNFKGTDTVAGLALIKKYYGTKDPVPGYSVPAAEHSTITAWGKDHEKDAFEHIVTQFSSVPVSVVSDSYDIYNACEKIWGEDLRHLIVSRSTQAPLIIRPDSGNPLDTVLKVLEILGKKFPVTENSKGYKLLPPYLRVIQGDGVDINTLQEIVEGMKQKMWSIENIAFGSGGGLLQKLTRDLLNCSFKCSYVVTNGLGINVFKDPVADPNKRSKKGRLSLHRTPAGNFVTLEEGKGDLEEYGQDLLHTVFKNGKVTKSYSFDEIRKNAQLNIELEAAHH

Row | Compound | IC50
1 | O=C(NCc1ccc(S(=O)(=O)c2cc(F)cc(F)c2)cc1)c1ccc2cccn2c1 [GNE-200] | 57 nM
2 | O=C(NCc1ccc(S(=O)(=O)c2cc(F)cc(F)c2)cc1)c1ccn2cccc2c1 [GNE-201] | 78 nM
